These results are taken from patent US8911935B2, “Mitochondria and human immunodefiency virus type 1” (New York University, priority 2011, dated 2014).

The subject of data set [1] is human pancreatic cancer PANC-1 cells. To be noted: glucose-deprived conditions; cited from earlier work.
A further data set relates to HIV-1 infected H9 cells. Description: Cell death of HIV-1 infected H9 cells on pre-treatment with mitochondrial inhibitors. To be noted: pre-treatment for 3 hours; CCCP 10 μM, antimycin A 2.4 μM, oligomycin 2.4 μM.
For a further data set, the system named is HIV-1 core protein p24. The experiment in a line: HIV-1 p24 assay (ELISA) in co-culture supernatants. Type of data set: cell-based, Human immunodeficiency virus type 1 (HIV-1). The following applies: HIV-infected H9 cells treated with CCCP, co-cultured with MT2 target cells; supernatant. How it is done: (§1) HIV-1 infected H9 cells were fluorescently labeled with MitoTracker Red CMXRos to stain mitochondria red, and with Hoechst 33342 to stain DNA blue according to the manufacturer's protocols (Molecular Probes). Uninfected MT2 target cells were labeled green by the expression of green fluorescent protein (GFP-MT2). Cells were co-cultured and imaged on a glass bottom 96-well plate (MatTek, Ashland, Mass.) in RPMI 1640 medium containing 10% heat-inactivated fetal calf serum, 2 mM L-glutamine, 100 U/ml penicillin and 100 μg/ml streptomycin (complete medium). Labeled HIV-1 infected H9 cells were washed 3 times with complete medium to remove any residual free virus and free dye. Washed cells were suspended in complete medium at a density of 5×10^5 cells/ml. 100 μl of this cell suspension, containing 50,000 cells, were plated into each well. 100,000 GFP-MT2 target cells in 100 μl were then added to each well, to give a ratio of 1:2 of infected to uninfected target cells. […]
(§2) For quantitation of syncytial formation and HIV p24 production, data are means±standard deviations of four independent experiments. […]
(§3) To confirm that mitochondria from HIV infected cells serve as viral reservoirs and carry the virus into the uninfected target cells, the present inventors quantitated viral infection and replication in the co-cultures by syncytia formation and viral antigen p24 production. […]

In data set [2] the test system is HIV-1. The experiment in a line: Syncytia formation assay in co-cultures of HIV-1 infected H9 cells with MT2 target cells. Type of data set: cell-based, Human immunodeficiency virus type 1 (HIV-1). The following applies: Human immunodeficiency virus 1, H9, 3 h, HIV-infected H9 cells treated with 10 μM CCCP for 3 hours, then co-cultured with MT2 target cells. How it is done: as §1, with “cells/ml.” for “cells/ml. 100 μl of this cell suspension, containing 50,000 cells, were plated into each well. 100,000 GFP-MT2 target cells in 100 μl were then added to each well, to give a ratio of 1:2 of infected to uninfected target cells.”
Acute HIV infection of the target cells as a result of cell-to-cell transmission of the virus was measured by syncytia formation assay. Focal syncytium formation was scored under an inverted microscope.
as §2, §3

Data set [3] concerns HIV-1. Description: Live-cell fluorescence imaging of cell-to-cell transmission of HIV-1, pre-treated H9 cells co-cultured with GFP-MT2 target cells. To be noted: FIG. 4C-3; for cell-to-cell spread of HIV-1, VS and syncytia formation: H9 cells pre-treated 3 hours (CCCP 10 μM, antimycin A 2.4 μM, oligomycin 2.4 μM), washed, co-cultured with GFP-MT2. The format is cell-based, Human immunodeficiency virus type 1 (HIV-1). The protocol: HIV-1 infected H9 cells were fluorescently labeled with MitoTracker Red CMXRos to stain mitochondria red, and with Hoechst 33342 to stain DNA blue according to the manufacturer's protocols (Molecular Probes). Uninfected MT2 target cells were labeled green by the expression of green fluorescent protein (GFP-MT2). Cells were co-cultured and imaged on a glass bottom 96-well plate (MatTek, Ashland, Mass.) in RPMI 1640 medium containing 10% heat-inactivated fetal calf serum, 2 mM L-glutamine, 100 U/ml penicillin and 100 μg/ml streptomycin (complete medium). Labeled HIV-1 infected H9 cells were washed 3 times with complete medium to remove any residual free virus and free dye. Washed cells were suspended in complete medium at a density of 5×10^5 cells/ml. 100 μl of this cell suspension, containing 50,000 cells, were plated into each well. 100,000 GFP-MT2 target cells in 100 μl were then added to each well, to give a ratio of 1:2 of infected to uninfected target cells.
Live-cell real-time images and time lapse movies were collected at 37° C., 5% CO2 using a microplate incubator, with precision temperature, humidity and CO2 controls, mounted on the microscope stage of a Leica inverted microscope equipped with an automatic power stage and an AF6000 camera. Phase contrast, blue (Hoechst 33342), green (GFP), and red (MitoTracker) channels were used for imaging. Images were collected at 0.5 min or 5 min intervals for 18-24 hours. Image analysis was performed using LCSAF software.

Entries after “also recorded” stand apart in the source; their conditions may differ.

Turning to efrapeptin F, the cytotoxicity result in data set [1] is reported as “preferential cytotoxicity”.

`N#CC(C#N)=NNc1cccc(Cl)c1` [CCCP, carbonyl cyanide m-chlorophenylhydrazone]: in the data set with HIV-1 infected H9 cells, the cell death result is listed as “no cell death”. For the same molecule, the “reduction of p24 expression” value with HIV-1 core protein p24 is given as “about 95%”. For the same molecule, the inhibition at 10 µM in the data set with HIV-1 [2] was about 95%. Further, the “syncytia formation in fluorescent images” value with HIV-1 [3] (CCCP-treated HIV-1 infected H9 cells co-cultured with GFP-MT2 target cells) was “inhibits syncytia formation; also recorded: blocked syncytia formation”. Further, in the data set on HIV-1 [3], the “cell-to-cell spread of HIV-1, VS and syncytia formation” value was “reduced cell-to-cell spread of HIV-1 and decreased VS and syncytia formation”.

Consider `CC[C@H]1/C=C/C=C/C[C@@H](C)[C@H](O)[C@@](C)(O)C(=O)[C@@H](C)[C@H](O)[C@@H](C)C(=O)[C@@H](C)[C@H](O)[C@@H](C)/C=C/C(=O)O[C@@H]2[C@H](C)[C@H](CC1)O[C@]1(CC[C@H](C)[C@H](C[C@@H](C)O)O1)[C@H]2C` [oligomycin], for which, in the data set on HIV-1 infected H9 cells, the cell death entry is “no cell death”. For the same molecule, the “cell-to-cell spread of HIV-1, VS and syncytia formation” value in the data set on HIV-1 [3] is “reduced cell-to-cell spread of HIV-1 and decreased VS and syncytia formation”.

Turning to antimycin A, the cell death result in the data set with HIV-1 infected H9 cells is “no cell death”. Also, the “cell-to-cell spread of HIV-1, VS and syncytia formation” value with HIV-1 [3] is “reduced cell-to-cell spread of HIV-1 and decreased VS and syncytia formation”.
